Patent publication US20110086759A1, “CHEMICAL COMPOUNDS” (SYNGENTA CROP PROTECTION, INC., priority 2007, published 2011)

Assays:
Assay type in all cases: in vivo
[1] = tested on: Amaranthus retoflexus (AMARE); assay: Pre-emergence biological efficacy, glasshouse pot test; conditions: Amaranthus retroflexus, 312 h
In short: (§1)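 Seeds sown in standard soil in pots, held one day in glasshouse (24/16 °C day/night, 14 h light, 65% humidity), then sprayed with aqueous solution from acetone/water (50:50) formulation with 0.5% Tween 20 at 1000 or 250 g/ha. Damage scored after 13 days (0 = none, 100 = total).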

Setaria faberi (SETFA) [2] = assay: as above; conditions: 312 h
In short: as §1

Solanum nigrum (SOLNI) [3] = assay: as above; conditions: 312 h
In short: as §1

[4] = tested on: Alopecurus myosuroides (ALOMY); assay: as above; conditions: 312 h
In short: as §1

[5] = tested on: Ipomea hederaceae (IPOHE); assay: as above; conditions: Ipomoea hederacea, 312 h
In short: as §1

[6] = tested on: Echinochloa crus-galli (ECHCG); assay: as above; conditions: 312 h
In short: as §1

[7] = tested on: Amaranthus retoflexus (AMARE); assay: Post-emergence biological efficacy, glasshouse pot test; conditions: Amaranthus retroflexus, 312 h
In short: (§2)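 Plants were sown in standard soil and grown 8 days in a glasshouse (24/16° C. day/night, 14 hours light, 65% humidity), then sprayed post-emergence at 1000 or 250 g/ha from acetone/water (50:50) with 0.5% Tween 20. Damage was scored visually after 13 days (0 = none, 100 = total).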

Setaria faberi (SETFA) [8] = assay: as above; conditions: 312 h
In short: as §2

Solanum nigrum (SOLNI) [9] = assay: as above; conditions: 312 h
In short: as §2

[10] = tested on: Alopecurus myosuroides (ALOMY); assay: as above; conditions: 312 h
In short: as §2

[11] = tested on: Ipomea hederaceae (IPOHE); assay: as above; conditions: Ipomoea hederacea, 312 h
In short: as §2

[12] = tested on: Echinochloa crus-galli (ECHCG); assay: as above; conditions: 312 h
In short: as §2

[13] = pre-emergence, 1,000 g/ha, evaluated after 13 days (100=total damage; 0=no damage), read-out: Percentage damage AMARE
[14] = pre-emergence, 1,000 g/ha, evaluated after 13 days (100=total damage; 0=no damage), read-out: Percentage damage SETFA
[15] = pre-emergence, 1,000 g/ha, evaluated after 13 days (100=total damage; 0=no damage), read-out: Percentage damage SOLNI
[16] = pre-emergence, 1,000 g/ha, evaluated after 13 days (100=total damage; 0=no damage), read-out: Percentage damage ALOMY
[17] = pre-emergence, 1,000 g/ha, evaluated after 13 days (100=total damage; 0=no damage), read-out: Percentage damage IPOHE
[18] = pre-emergence, 1,000 g/ha, evaluated after 13 days (100=total damage; 0=no damage), read-out: Percentage damage ECHCG
[19] = post-emergence, 1,000 g/ha, evaluated after 13 days (100=total damage; 0=no damage), read-out: Percentage damage caused to weed species, AMARE
[20] = post-emergence, 1,000 g/ha, evaluated after 13 days (100=total damage; 0=no damage), read-out: Percentage damage caused to weed species, SETFA
[21] = post-emergence, 1,000 g/ha, evaluated after 13 days (100=total damage; 0=no damage), read-out: Percentage damage caused to weed species, SOLNI
[22] = post-emergence, 1,000 g/ha, evaluated after 13 days (100=total damage; 0=no damage), read-out: Percentage damage caused to weed species, ALOMY
[23] = post-emergence, 1,000 g/ha, evaluated after 13 days (100=total damage; 0=no damage), read-out: Percentage damage caused to weed species, IPOHE
[24] = post-emergence, 1,000 g/ha, evaluated after 13 days (100=total damage; 0=no damage), read-out: Percentage damage caused to weed species, ECHCG
[25] = pre-emergence, rate 1,000 g/ha, evaluated after 13 days (100=total damage to plant; 0=no damage), read-out: Percentage damage caused to weed species, AMARE
[26] = pre-emergence, rate 1,000 g/ha, evaluated after 13 days (100=total damage to plant; 0=no damage), read-out: Percentage damage caused to weed species, SETFA
[27] = pre-emergence, rate 1,000 g/ha, evaluated after 13 days (100=total damage to plant; 0=no damage), read-out: Percentage damage caused to weed species, SOLNI
[28] = pre-emergence, rate 1,000 g/ha, evaluated after 13 days (100=total damage to plant; 0=no damage), read-out: Percentage damage caused to weed species, ALOMY
[29] = pre-emergence, rate 1,000 g/ha, evaluated after 13 days (100=total damage to plant; 0=no damage), read-out: Percentage damage caused to weed species, IPOHE
[30] = pre-emergence, rate 1,000 g/ha, evaluated after 13 days (100=total damage to plant; 0=no damage), read-out: Percentage damage caused to weed species, ECHCG
[31] = Rate 1,000 g/ha, post-emergence spray, evaluated after 13 days (100=total damage to plant; 0=no damage to plant), read-out: Percentage damage caused to weed species, post-emergence, AMARE
[32] = Rate 1,000 g/ha, post-emergence spray, evaluated after 13 days (100=total damage to plant; 0=no damage to plant), read-out: Percentage damage caused to weed species, post-emergence, SETFA
[33] = Rate 1,000 g/ha, post-emergence spray, evaluated after 13 days (100=total damage to plant; 0=no damage to plant), read-out: Percentage damage caused to weed species, post-emergence, SOLNI
[34] = Rate 1,000 g/ha, post-emergence spray, evaluated after 13 days (100=total damage to plant; 0=no damage to plant), read-out: Percentage damage caused to weed species, post-emergence, ALOMY
[35] = Rate 1,000 g/ha, post-emergence spray, evaluated after 13 days (100=total damage to plant; 0=no damage to plant), read-out: Percentage damage caused to weed species, post-emergence, IPOHE
[36] = Rate 1,000 g/ha, post-emergence spray, evaluated after 13 days (100=total damage to plant; 0=no damage to plant), read-out: Percentage damage caused to weed species, post-emergence, ECHCG

SMILES	pest or weed control at 1000 g/ha [1, 13] [%]	pest or weed control at 1000 g/ha (Setaria faberi (SETFA) [2]; [14]) [%]	pest or weed control at 1000 g/ha (Solanum nigrum (SOLNI) [3]; [15]) [%]	pest or weed control at 1000 g/ha [4, 16] [%]	pest or weed control at 1000 g/ha [5, 17] [%]	pest or weed control at 1000 g/ha [6, 18] [%]	pest or weed control at 1000 g/ha [7, 19] [%]	pest or weed control at 1000 g/ha (Setaria faberi (SETFA) [8]; [20]) [%]	pest or weed control at 1000 g/ha (Solanum nigrum (SOLNI) [9]; [21]) [%]	pest or weed control at 1000 g/ha [10, 22] [%]	pest or weed control at 1000 g/ha [11, 23] [%]	pest or weed control at 1000 g/ha [12, 24] [%]	other results
COC(=O)c1nc(C2CC2)nc(N[C@@H](Cc2ccc(O)cc2)C(=O)OC)c1Cl [4-287 (S), 5-Chloro-2-cyclopropyl-4-[(1S)-2-(4-hydroxyphenyl)-1-methoxycarbonyl-ethylamino]-6-methoxycarbonyl-pyrimidine]	80	20	80	20	80	10	100	40	80	20	70	60	–
COC(=O)c1nc(C2CC2)nc(NCc2ccccn2)c1Cl [Compound 4-151, 5-Chloro-2-cyclopropyl-6-methoxycarbonyl-4-(pyrid-2-yl-methylamino)-pyrimidine]	100	50	90	40	90	60	100	80	80	60	80	80	–
COC(=O)c1nc(C2CC2)nc(NCc2ccco2)c1Cl [Compound 4-125, 5-Chloro-2-cyclopropyl-4-(furan-2-ylmethyl-amino)-6-methoxy-carbonylpyrimidine]	100	80	90	70	100	80	100	90	100	60	100	80	–
COC(=O)c1nc(C2CC2)nc(NCc2ccc(OC)cc2OC)c1Cl [Compound 4-110, 5-Chloro-2-cyclopropyl-4-(2,4-dimethoxyphenyl-methylamino)-6-methoxycarbonyl-pyrimidine]	100	40	90	40	100	80	100	80	80	70	100	80	–
COC(=O)c1nc(C2CC2)nc(NCCCCc2ccccc2)c1Cl [Compound 4-253, 5-Chloro-2-cyclopropyl-6-methoxycarbonyl-4-(4-phenylbutyl-amino)pyrimidine]	50	30	80	10	100	20	100	50	100	10	70	40	–
C=Cc1ccc(-c2c(NCc3ccco3)nc(C3CC3)nc2C(=O)OC)cc1 [Compound 187-125, 2-Cyclopropyl-5-(4-ethenylphenyl)-4-(furan-2-ylmethylamino)-6-methoxycarbonyl-pyrimidine]	–	–	–	–	–	–	–	–	–	–	–	–	pest or weed control at 1000 g/ha [1, 25]: 0%; pest or weed control at 1000 g/ha (Setaria faberi (SETFA) [2]; [26]): 0%; pest or weed control at 1000 g/ha (Solanum nigrum (SOLNI) [3]; [27]): 0%; pest or weed control at 1000 g/ha [4, 28]: 0%; pest or weed control at 1000 g/ha [5, 29]: 0%; pest or weed control at 1000 g/ha [6, 30]: 0%; pest or weed control at 1000 g/ha [7, 31]: 70%; pest or weed control at 1000 g/ha (Setaria faberi (SETFA) [8]; [32]): 0%; pest or weed control at 1000 g/ha (Solanum nigrum (SOLNI) [9]; [33]): 50%; pest or weed control at 1000 g/ha [10, 34]: 0%; pest or weed control at 1000 g/ha [11, 35]: 40%; pest or weed control at 1000 g/ha [12, 36]: 0%
O=C(NCc1ccccc1)c1nc(C2CC2)nc(NCc2ccccc2)c1Cl [Compound 265-1, 5-chloro-2-cyclopropyl-4-phenylmethylamino-6-phenylmethylaminocarbonyl pyrimidine]	–	–	–	–	–	–	–	–	–	–	–	–	pest or weed control at 1000 g/ha [1, 25]: 30%; pest or weed control at 1000 g/ha (Setaria faberi (SETFA) [2]; [26]): 0%; pest or weed control at 1000 g/ha (Solanum nigrum (SOLNI) [3]; [27]): 10%; pest or weed control at 1000 g/ha [4, 28]: 0%; pest or weed control at 1000 g/ha [5, 29]: 0%; pest or weed control at 1000 g/ha [6, 30]: 0%; pest or weed control at 1000 g/ha [7, 31]: 80%; pest or weed control at 1000 g/ha (Setaria faberi (SETFA) [8]; [32]): 0%; pest or weed control at 1000 g/ha (Solanum nigrum (SOLNI) [9]; [33]): 50%; pest or weed control at 1000 g/ha [10, 34]: 10%; pest or weed control at 1000 g/ha [11, 35]: 70%; pest or weed control at 1000 g/ha [12, 36]: 0%
COC(=O)c1nc(C2CC2)nc(NCc2ccncc2)c1Cl [Compound 4-160, 5-Chloro-2-cyclopropyl-6-methoxycarbonyl-4-(pyrid-4-yl-methyl-amino)pyrimidine]	70	50	90	20	100	60	100	80	80	40	90	70	–
COC(=O)c1nc(C2CC2)nc(NC(C)c2ccc(F)cc2)c1Cl (stereo not drawn) [Compound 4-175, 5-Chloro-2-cyclopropyl-4-[1-(4-fluorophenyl)ethyl-amino]-6-methoxy-carbonylpyrimidine]	50	0	10	10	70	10	100	90	100	20	100	60	–
